{"source": "ChEMBL document CHEMBL1201862", "about": "“PubChem BioAssay data set” (2004)", "key": {"[1]": {"target": "T1, Alkaline phosphatase, tissue-nonspecific isozyme (Homo sapiens, UniProt P05186)", "T1 sequence (P05186 whole entry)": "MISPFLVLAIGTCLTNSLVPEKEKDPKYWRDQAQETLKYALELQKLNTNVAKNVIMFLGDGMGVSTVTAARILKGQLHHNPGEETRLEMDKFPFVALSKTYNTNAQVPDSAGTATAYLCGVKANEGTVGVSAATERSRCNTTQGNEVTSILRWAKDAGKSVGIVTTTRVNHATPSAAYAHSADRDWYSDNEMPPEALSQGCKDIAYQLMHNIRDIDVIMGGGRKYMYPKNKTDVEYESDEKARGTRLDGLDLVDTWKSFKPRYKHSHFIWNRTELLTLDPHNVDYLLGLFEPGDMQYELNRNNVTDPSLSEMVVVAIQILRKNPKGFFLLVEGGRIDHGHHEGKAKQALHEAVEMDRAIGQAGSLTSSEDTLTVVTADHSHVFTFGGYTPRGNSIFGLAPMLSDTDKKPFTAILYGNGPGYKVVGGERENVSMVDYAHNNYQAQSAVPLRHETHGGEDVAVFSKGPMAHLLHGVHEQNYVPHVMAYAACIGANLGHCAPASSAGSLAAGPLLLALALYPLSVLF", "test": "TNAP enzyme activators, dose response, selectivity assay for human IAP activator project, biochemical, TNAP isozyme, human IAP uHTS hits (AID 488886);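 note: potency of compounds raising TNAP activity as a selectivity check on IAP activators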", "assay_type": "functional"}, "[2]": {"target": "T2, Intestinal-type alkaline phosphatase (Homo sapiens, UniProt P09923)", "T2 sequence (P09923 whole entry)": "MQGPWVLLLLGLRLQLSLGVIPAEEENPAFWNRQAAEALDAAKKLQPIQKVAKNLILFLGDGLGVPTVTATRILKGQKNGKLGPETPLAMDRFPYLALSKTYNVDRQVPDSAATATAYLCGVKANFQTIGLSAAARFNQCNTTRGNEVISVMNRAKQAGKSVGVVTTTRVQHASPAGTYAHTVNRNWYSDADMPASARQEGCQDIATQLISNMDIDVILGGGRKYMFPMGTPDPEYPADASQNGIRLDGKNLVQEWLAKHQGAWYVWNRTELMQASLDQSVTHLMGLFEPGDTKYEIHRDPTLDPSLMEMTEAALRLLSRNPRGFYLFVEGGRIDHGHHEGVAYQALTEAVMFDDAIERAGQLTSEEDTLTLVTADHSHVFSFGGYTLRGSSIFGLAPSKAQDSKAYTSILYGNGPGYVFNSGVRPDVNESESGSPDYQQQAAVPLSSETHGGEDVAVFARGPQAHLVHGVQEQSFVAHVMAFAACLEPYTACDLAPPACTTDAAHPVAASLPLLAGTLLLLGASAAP", "test": "human intestinal alkaline phosphatase activators, dose response, biochemical, luminescence, uHTS hits (AID 463120)", "assay_type": "functional"}, "[3]": {"target": "T2, Intestinal-type alkaline phosphatase", "test": "human IAP activators, dose response, biochemical, luminescent, uHTS hits, set 2 (AID 488817);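 note: potency of activators that raise enzyme activity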", "assay_type": "functional"}, "[4]": {"target": "Intestinal-type alkaline phosphatase (Mus musculus, UniProt P24822)", "sequence (P24822 whole entry)": "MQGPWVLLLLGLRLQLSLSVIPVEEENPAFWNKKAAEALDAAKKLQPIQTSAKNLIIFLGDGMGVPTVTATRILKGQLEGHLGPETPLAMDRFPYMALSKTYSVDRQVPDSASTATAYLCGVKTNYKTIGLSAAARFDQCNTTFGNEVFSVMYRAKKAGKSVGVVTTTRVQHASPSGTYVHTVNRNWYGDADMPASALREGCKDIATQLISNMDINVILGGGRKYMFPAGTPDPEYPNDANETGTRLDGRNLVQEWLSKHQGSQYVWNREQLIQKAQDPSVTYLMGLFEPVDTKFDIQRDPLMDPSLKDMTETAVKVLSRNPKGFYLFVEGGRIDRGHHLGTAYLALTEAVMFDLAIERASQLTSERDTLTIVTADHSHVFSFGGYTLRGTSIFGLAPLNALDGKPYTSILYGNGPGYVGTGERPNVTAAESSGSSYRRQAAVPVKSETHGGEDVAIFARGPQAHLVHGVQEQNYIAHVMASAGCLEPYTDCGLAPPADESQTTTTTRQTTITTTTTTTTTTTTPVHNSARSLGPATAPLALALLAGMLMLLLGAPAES", "test": "PubChem AID 488874", "assay_type": "functional"}, "[5]": {"tested_on": "H9c2", "test": "cells", "assay_type": "functional, cell-based", "details": "Rattus norvegicus, H9c2, Myocardium"}}, "note": "Activity calls are given as the source filed them.", "data": [{"smiles": "CCOCCCNC(=O)CCC(=O)NNc1nc2ccccc2c2nc(-c3ccccc3)nn12", "values": [{"measurement": "EC50", "setting": "[1]", "value": "17.7 µM (active)"}, {"measurement": "EC50", "setting": "[2]", "value": "12.6 µM (active)"}, {"measurement": "EC50", "setting": "[3]", "value": "15.2 µM (active)"}, {"measurement": "IC50", "setting": "[4]", "value": "29.6 µM (active)"}, {"measurement": "IC50", "setting": "[5]", "value": "> 79 µM (inactive)"}]}]}
